Data reported in patent publication US20040009899A1, “Treating dominant disorders” (priority 2002, published 2004).

Key:
[1] = tested on: non-transgenic mice; conditions: mouse, in vivo, 0.15 mg/kg
Description: Cannulation and microsurgery—Method 2: Pump cannulas were prepared 48 hours before surgery. For adaptation to mice, Alzet pump cannulas were ground to a length of 2 mm. The cannulas then were sterilized by gas ozonation. Mice were anesthetized via i.p. injection with 100 mg/kg of a ketamine/xylazine solution containing 8 mg/mL ketamine and 1 mg/mL xylazine in 0.9% saline. Once anesthetized, each mouse was cannulated. Each anesthetized mouse was placed in a Stoelting Stereotaxic Frame with a mouse adapter (Stoelting Instruments). An incision was made using a scalpel, and the skin and tissue were pulled back with swabs to reveal the skull. The cannulation site was positioned for optimum access to the ventricle, at coordinates AP −0.2 mm, Horiz −1 mm from bregma. A cannula entry port and two bone screw ports were opened in the skull using a Dremel Flex Shaft Drill (Stoelting Instruments) with a 2.1 mm burr. The cannula was lowered into place and affixed using Loctite 454 (Loctite Corp., Avon, Ohio). An Alzet Mini-Osmotic Pump was inserted into a pouch beneath the skin and attached to the cannula with silastic tubing. The wound was closed using wound clips and the animal was allowed to recuperate.
Delivery of PNA oligomer solutions: All handling of tubing and cannulas was done under sterile conditions. […]

[2] = tested on: GAPDH; assay: Western immunoblot of GAPDH (non-targeted gene) in PNA-treated R6/1 mice; assay type: in vivo, mouse; conditions: any animal tested
Description: Following the treatment period, mice were anesthetized with ether and sacrificed by cervical dislocation. Whole brains and livers were removed and placed in 0.9% saline. Striatum tissue was dissected from whole brains, and liver tissue was finely minced. The tissues were placed in separate 2 mL microfuge tubes on dry ice and then suspended in 20 volumes of RIPA buffer (50 mM Tris pH 8, 150 mM NaCl, 1 mM EDTA, 1 mM EGTA, 0.5% sodium deoxycholate, 0.1% SDS, 1% TritonX-100, 2 μg/mL leupeptin, 2 μg/mL aprotinin, 1 μg/mL pepstatin, 1 mM phenylmethylsulfonylfluoride) per gram of tissue. Suspended tissues were homogenized by sonication, and the homogenates were clarified by centrifugation at 12,000×g for 20 minutes at 4° C. Following centrifugation, the supernatants were removed and protein concentrations were quantified by Bradford assays using a BSA standard.
Immunoblotting: Supernatants from the tissue homogenates were mixed with 1/6 volume of 6×SDS sample buffer (350 mM Tris pH 6.8, 10% SDS, 30% glycerol, 15% 2-mercaptoethanol, 0.012% bromophenol blue). Equal amounts of protein were directly loaded onto 10% acrylamide/0.05% bisacrylamide gels without heat denaturation. […] Protein bands were detected on film by chemiluminescence. […]

Substance: HDs: sense PNA oligomer, 14 residues, 5′-GGACTGCCGTGCCG-3′ (SEQ ID NO:3), specific for the expanded human HD allele (all peptide nucleic acid (PNA))
- effect of treatment on non-transgenic animals [1]: appeared unaffected
- inhibition of non-targeted genes such as GAPDH [2]: No measurable inhibition
